Columns and labels:
Format in all cases: in vivo
corn [1] = assay: Yield, V3-V5 foliar corn treatment (FIG. 9); settings: statistical data for FIG. 9, yield
Source text: FIG. 9 is a graph showing V3-V5 foliar corn treatment using a synergistic agricultural formula in accordance with the present invention including 7.5 wt. % DFU and 0.01 wt. % cytokinin applied at a Pint/Acre compared to each individual component applied at a Pint/Acre.
(§1) The statistical data for this analysis is provided as follows: […]

corn [2] = assay: Yield in furrow corn treatment (FIG. 8); settings: statistical data for FIG. 8, yield
Source text: FIG. 8 is a graph showing the yield in furrow corn treatment using a synergistic agricultural formula in accordance with the present invention including 7.5 wt. % DFU, 0.01 wt. % cytokinin, and 0.05 wt. % IAA applied at a Pint/Acre compared to each individual component applied at a Pint/Acre; and
as §1

soybean = assay: Yield upon soybean seed treatment (FIG. 7); settings: statistical data for FIG. 7, yield
Source text: (§2) FIG. 7 is a graph showing the yield upon soybean seed treatment using a synergistic agricultural formula in accordance with the present invention including 14 wt. % DFU and 10 wt. % of Stollers STIMULATE YE Plant Growth Regulator Mix applied at a Pint/Acre compared to each individual component applied at a Pint/Acre;
as §1

winter wheat = assay: Yield upon winter wheat seed treatment (FIG. 6); settings: statistical data for FIG. 6, yield
Source text: as §2, with “6” for “7”, “winter wheat” for “soybean”
as §1

corn [3] = assay: Yield upon corn seed treatment (FIG. 5); settings: statistical data for FIG. 5, yield
Source text: as §2, with “5” for “7”, “corn” for “soybean”
as §1

O=CNC(=O)NC=O [15% DFU, N,N′-diformylurea]
p Vs Combination (corn [1]): 0.0677
p Vs Control (corn [1]): 0.6829
p Vs Combination (corn [2]): 0.0622
p Vs Control (corn [2]): 0.5485
p Vs Combination (soybean): 0.052
p Vs Control (soybean): 0.4492
p Vs Combination (winter wheat): 0.0089
p Vs Control (winter wheat): 0.0026
p Vs Combination (corn [3]): 0.0442
p Vs Control (corn [3]): 0.8782

— patent US20190008155A1, “Synergistic Agricultural Formula Comprising Diacyl or Diaryl Urea and At Least One Plant Growth Regulator” (Stoller Enterprises, Inc., priority 2017, published 2019)
